In brackets after ≈: the same amount, converted by molar mass. Activity calls are given as the source filed them. No cut-off for these calls is given here.
System: mu-oxodimeric heme
Experiment: Binding affinity to mu-oxodimeric heme assessed as decrease in soret band intensity up to 26.7 uM at pH 5.8 by titration-based UV-vis spectrophotometric analysis
Conditions: not given

Structure (SMILES) | Activity
Cc1nc(OCc2cn(CCCNc3ccnc4cc(Cl)ccc34)nn2)nc(-c2ccc([N+](=O)[O-])cc2)c1C(=O)OC(C)C | Active

System: Plasmodium falciparum
Experiment: microbe, parasite or virus in culture
Conditions: Dd2
Description: Antiplasmodial activity against chloroquine-resistant Plasmodium falciparum Dd2 by LDH release assay

Structure (SMILES) | IC50 [nM]
Cc1nc(OCc2cn(CCCNc3ccnc4cc(Cl)ccc34)nn2)nc(-c2ccc([N+](=O)[O-])cc2)c1C(=O)OC(C)C | 4590
COC(=O)c1c(C)nc(OCc2cn(CCCNc3ccnc4cc(Cl)ccc34)nn2)nc1-c1ccccc1 | 1650
CCOC(=O)c1c(C)nc(OCc2cn(CCNc3ccnc4cc(Cl)ccc34)nn2)nc1C | 8140
CCOC(=O)c1c(C)nc(OCc2cn(CCNc3ccnc4cc(Cl)ccc34)nn2)nc1-c1ccccc1 | 2520

System: Heme
Experiment: Binding affinity to monomeric heme by 1H NMR method
Conditions: not given

Structure (SMILES) | Activity
Cc1nc(OCc2cn(CCCNc3ccnc4cc(Cl)ccc34)nn2)nc(-c2ccc([N+](=O)[O-])cc2)c1C(=O)OC(C)C | Active

System: DNA
Experiment: Binding affinity to Escherichia coli pUC18 DNA at 17.1 uM by fluorimetry analysis
Format: nucleic-acid assay
Conditions: not given

Structure (SMILES) | Activity
Cc1nc(OCc2cn(CCCNc3ccnc4cc(Cl)ccc34)nn2)nc(-c2ccc([N+](=O)[O-])cc2)c1C(=O)OC(C)C | Active

System: Vero
Experiment: Cytotoxicity against African green monkey Vero cells assessed as reduction in cell viability by MTT assay
Format: cell-based
Conditions: Chlorocebus sabaeus

Structure (SMILES) | IC50 [nM]
Cc1nc(OCc2cn(CCCNc3ccnc4cc(Cl)ccc34)nn2)nc(-c2ccc([N+](=O)[O-])cc2)c1C(=O)OC(C)C | 15200
COC(=O)c1c(C)nc(OCc2cn(CCCNc3ccnc4cc(Cl)ccc34)nn2)nc1-c1ccccc1 | 156000
CCOC(=O)c1c(C)nc(OCc2cn(CCNc3ccnc4cc(Cl)ccc34)nn2)nc1C | > 207000
CCOC(=O)c1c(C)nc(OCc2cn(CCNc3ccnc4cc(Cl)ccc34)nn2)nc1-c1ccccc1 | 149000

System: Calf thymus DNA
Experiment: Binding affinity to calf thymus DNA at 17.1 uM by fluorimetry analysis
Format: nucleic-acid assay
Conditions: Bos taurus

Structure (SMILES) | Activity
Cc1nc(OCc2cn(CCCNc3ccnc4cc(Cl)ccc34)nn2)nc(-c2ccc([N+](=O)[O-])cc2)c1C(=O)OC(C)C | Active

System: Heme
Experiment: Binding affinity to monomeric heme at pH 5.6 by titration-based UV-vis spectrophotometric analysis
Conditions: not given

Structure (SMILES) | log K
Cc1nc(OCc2cn(CCCNc3ccnc4cc(Cl)ccc34)nn2)nc(-c2ccc([N+](=O)[O-])cc2)c1C(=O)OC(C)C | 4.27

System: Heme
Experiment: Binding affinity to monomeric heme at pH 7.4 by titration-based UV-vis spectrophotometric analysis
Conditions: not given

Structure (SMILES) | log K
Cc1nc(OCc2cn(CCCNc3ccnc4cc(Cl)ccc34)nn2)nc(-c2ccc([N+](=O)[O-])cc2)c1C(=O)OC(C)C | 4.68

System: Calf thymus DNA
Experiment: Binding affinity to calf thymus DNA assessed as association constant by Benesi-Hildebrand equation analysis
Format: nucleic-acid assay
Conditions: Bos taurus

Structure (SMILES) | log K
Cc1nc(OCc2cn(CCCNc3ccnc4cc(Cl)ccc34)nn2)nc(-c2ccc([N+](=O)[O-])cc2)c1C(=O)OC(C)C | 2.29

System: not listed separately
Experiment: n-octanol-phosphate buffer distribution coefficient, log D of the compound at pH 7.4 after 1 hr by HPLC method
Format: physicochemical
Conditions: not given

Structure (SMILES) | logD at 1 h
Cc1nc(OCc2cn(CCCNc3ccnc4cc(Cl)ccc34)nn2)nc(-c2ccc([N+](=O)[O-])cc2)c1C(=O)OC(C)C | 1.43
COC(=O)c1c(C)nc(OCc2cn(CCCNc3ccnc4cc(Cl)ccc34)nn2)nc1-c1ccccc1 | 0.78
CCOC(=O)c1c(C)nc(OCc2cn(CCNc3ccnc4cc(Cl)ccc34)nn2)nc1C | 0.27
CCOC(=O)c1c(C)nc(OCc2cn(CCNc3ccnc4cc(Cl)ccc34)nn2)nc1-c1ccccc1 | 0.81

System: Heme
Experiment: Binding affinity to monomeric heme at 5 umol by HRMS mass spectrum analysis
Conditions: not given

Structure (SMILES) | Activity
Cc1nc(OCc2cn(CCCNc3ccnc4cc(Cl)ccc34)nn2)nc(-c2ccc([N+](=O)[O-])cc2)c1C(=O)OC(C)C | Active

System: Plasmodium falciparum
Experiment: microbe, parasite or virus in culture
Conditions: NF54
Description: Antiplasmodial activity against chloroquine-sensitive Plasmodium falciparum NF54 by LDH release assay

Structure (SMILES) | IC50 [nM]
Cc1nc(OCc2cn(CCCNc3ccnc4cc(Cl)ccc34)nn2)nc(-c2ccc([N+](=O)[O-])cc2)c1C(=O)OC(C)C | 48
COC(=O)c1c(C)nc(OCc2cn(CCCNc3ccnc4cc(Cl)ccc34)nn2)nc1-c1ccccc1 | 1010
CCOC(=O)c1c(C)nc(OCc2cn(CCNc3ccnc4cc(Cl)ccc34)nn2)nc1C | 2490
CCOC(=O)c1c(C)nc(OCc2cn(CCNc3ccnc4cc(Cl)ccc34)nn2)nc1-c1ccccc1 | 1490

System: Calf thymus DNA
Experiment: Binding affinity to calf thymus DNA at 66 uM by UV-visible absorption spectral analysis
Format: nucleic-acid assay
Conditions: Bos taurus

Structure (SMILES) | Activity
Cc1nc(OCc2cn(CCCNc3ccnc4cc(Cl)ccc34)nn2)nc(-c2ccc([N+](=O)[O-])cc2)c1C(=O)OC(C)C | Active

System: not listed separately
Experiment: Aqueous solubility in pH 7.4 PBS buffer after 24 hrs by HPLC analysis
Format: physicochemical
Conditions: not given

Structure (SMILES) | solubility at 24 h [µM]
Cc1nc(OCc2cn(CCCNc3ccnc4cc(Cl)ccc34)nn2)nc(-c2ccc([N+](=O)[O-])cc2)c1C(=O)OC(C)C | 0.55 (≈ 0.339 µg/mL)
COC(=O)c1c(C)nc(OCc2cn(CCCNc3ccnc4cc(Cl)ccc34)nn2)nc1-c1ccccc1 | 5.64 (≈ 3.07 µg/mL)
CCOC(=O)c1c(C)nc(OCc2cn(CCNc3ccnc4cc(Cl)ccc34)nn2)nc1C | 19.1 (≈ 9.21 µg/mL)
CCOC(=O)c1c(C)nc(OCc2cn(CCNc3ccnc4cc(Cl)ccc34)nn2)nc1-c1ccccc1 | 3.3 (≈ 1.8 µg/mL)

System: mu-oxodimeric heme
Experiment: Binding affinity to mu-oxodimeric heme at pH 5.8 by titration-based UV-vis spectrophotometric analysis
Conditions: not given

Structure (SMILES) | log K
Cc1nc(OCc2cn(CCCNc3ccnc4cc(Cl)ccc34)nn2)nc(-c2ccc([N+](=O)[O-])cc2)c1C(=O)OC(C)C | 5.43

System: not listed separately
Experiment: in vitro
Conditions: monkey, Vero cells
Description: Selectivity index, ratio of IC50 for African green monkey Vero cells to IC50 for chloroquine-sensitive Plasmodium falciparum NF54

Structure (SMILES) | selectivity ratio
Cc1nc(OCc2cn(CCCNc3ccnc4cc(Cl)ccc34)nn2)nc(-c2ccc([N+](=O)[O-])cc2)c1C(=O)OC(C)C | 318
COC(=O)c1c(C)nc(OCc2cn(CCCNc3ccnc4cc(Cl)ccc34)nn2)nc1-c1ccccc1 | 154
CCOC(=O)c1c(C)nc(OCc2cn(CCNc3ccnc4cc(Cl)ccc34)nn2)nc1C | > 83
CCOC(=O)c1c(C)nc(OCc2cn(CCNc3ccnc4cc(Cl)ccc34)nn2)nc1-c1ccccc1 | 100

System: Heme
Experiment: Binding affinity to monomeric heme assessed as decrease in soret band intensity up to 40 uM at pH 5.6 to 7.4 by titration-based UV-vis spectrophotometric analysis
Conditions: not given

Structure (SMILES) | Activity
Cc1nc(OCc2cn(CCCNc3ccnc4cc(Cl)ccc34)nn2)nc(-c2ccc([N+](=O)[O-])cc2)c1C(=O)OC(C)C | Active

System: unidentified
Experiment: Inhibition of acetate buffer-initiated beta-hematin polymerization at 1.2 equiv measured after 1 hr by FT-IR spectroscopic method
Conditions: not given

Structure (SMILES) | inhibition
Cc1nc(OCc2cn(CCCNc3ccnc4cc(Cl)ccc34)nn2)nc(-c2ccc([N+](=O)[O-])cc2)c1C(=O)OC(C)C | Active

System: not listed separately
Experiment: Solubility in n-octanol at pH 7.4 after 24 hrs by HPLC analysis
Format: physicochemical
Conditions: not given

Structure (SMILES) | solubility at 24 h [µM]
Cc1nc(OCc2cn(CCCNc3ccnc4cc(Cl)ccc34)nn2)nc(-c2ccc([N+](=O)[O-])cc2)c1C(=O)OC(C)C | 14.9 (≈ 9.18 µg/mL)
COC(=O)c1c(C)nc(OCc2cn(CCCNc3ccnc4cc(Cl)ccc34)nn2)nc1-c1ccccc1 | 34.2 (≈ 18.6 µg/mL)
CCOC(=O)c1c(C)nc(OCc2cn(CCNc3ccnc4cc(Cl)ccc34)nn2)nc1C | 35.6 (≈ 17.2 µg/mL)
CCOC(=O)c1c(C)nc(OCc2cn(CCNc3ccnc4cc(Cl)ccc34)nn2)nc1-c1ccccc1 | 21.7 (≈ 11.8 µg/mL)

System: Calf thymus DNA
Experiment: Binding affinity to calf thymus DNA by UV-visible absorption spectral analysis
Format: nucleic-acid assay
Conditions: Bos taurus

Structure (SMILES) | log K
Cc1nc(OCc2cn(CCCNc3ccnc4cc(Cl)ccc34)nn2)nc(-c2ccc([N+](=O)[O-])cc2)c1C(=O)OC(C)C | 3.74

System: Calf thymus DNA
Experiment: Binding affinity to calf thymus DNA assessed as change in melting temperature at DNA to compound ratio of 5:1
Format: nucleic-acid assay
Conditions: Bos taurus

Structure (SMILES) | ΔTm [°C]
Cc1nc(OCc2cn(CCCNc3ccnc4cc(Cl)ccc34)nn2)nc(-c2ccc([N+](=O)[O-])cc2)c1C(=O)OC(C)C | 2.5

System: DNA
Experiment: Binding affinity to Escherichia coli pUC18 DNA by UV-visible absorption spectral analysis
Format: nucleic-acid assay
Conditions: not given

Structure (SMILES) | log K
Cc1nc(OCc2cn(CCCNc3ccnc4cc(Cl)ccc34)nn2)nc(-c2ccc([N+](=O)[O-])cc2)c1C(=O)OC(C)C | 3.92
